Read-outs that look alike come from different tables or passages of the source.
Target: recombinant human Nav1.7 (Homo sapiens (Human), UniProt Q15858)
Test: FRET-based membrane potential assay, recombinant human sodium channel Nav1.7
Type: cell-based
Conditions: read-out: FRET-Membrane Potential Nav1.7 IC50
Protocol: FRET-Based Membrane Potential Assays.
Recombinant, Human Sodium Channel, Nav1.7.
On the day of the assay, medium was removed by aspiration, and cells were washed with assay buffer [HBSS (Invitrogen, Carlsbad, Calif.) containing 20 mM HEPES (Invitrogen, Carlsbad, Calif.)]. […] Cells were incubated for 40 minutes at room temperature in the dark. […] The cells were incubated for 90 minutes at room temperature in the dark. Fluorescence readings were made using a FLIPR®^TETRA (Molecular Devices, Sunnyvale Calif.) equipped with voltage-sensor probe optics. At the start of each experiment the optimal (EC80) concentration of depolarizing agent (veratridine) was determined by testing a dilution curve of assay buffer containing veratridine (Sigma-Aldrich, St. Louis, Mo.) and 1 mg/mL scorpion venom (SVqq, from Leiurus quinquestriatus; Sigma-Aldrich, St. Louis, Mo.). […] Test compounds in the daughter plate were diluted to (˜3×) solutions in assay buffer immediately before assaying. Using the FLIPR®^TETRA, 20 μL of the (3×) compound solutions were first added to the cells, then 20 μL of depolarizing solution (3×EC80 veratridine+SVqq) were added 3 minutes later to activate the channel. […] IC50 values were calculated from curve fits of the ratio data using a four-parameter logistic Hill equation (Accelrys Assay Explorer 3.3 Client, Accelrys, San Diego, Calif.) with percent inhibition plotted against compound concentration.

[1] = HEK293 cells stably expressing recombinant human Nav1.7, veratridine + scorpion venom depolarization

recombinant human Nav1.7, sequence (Q15858 whole entry): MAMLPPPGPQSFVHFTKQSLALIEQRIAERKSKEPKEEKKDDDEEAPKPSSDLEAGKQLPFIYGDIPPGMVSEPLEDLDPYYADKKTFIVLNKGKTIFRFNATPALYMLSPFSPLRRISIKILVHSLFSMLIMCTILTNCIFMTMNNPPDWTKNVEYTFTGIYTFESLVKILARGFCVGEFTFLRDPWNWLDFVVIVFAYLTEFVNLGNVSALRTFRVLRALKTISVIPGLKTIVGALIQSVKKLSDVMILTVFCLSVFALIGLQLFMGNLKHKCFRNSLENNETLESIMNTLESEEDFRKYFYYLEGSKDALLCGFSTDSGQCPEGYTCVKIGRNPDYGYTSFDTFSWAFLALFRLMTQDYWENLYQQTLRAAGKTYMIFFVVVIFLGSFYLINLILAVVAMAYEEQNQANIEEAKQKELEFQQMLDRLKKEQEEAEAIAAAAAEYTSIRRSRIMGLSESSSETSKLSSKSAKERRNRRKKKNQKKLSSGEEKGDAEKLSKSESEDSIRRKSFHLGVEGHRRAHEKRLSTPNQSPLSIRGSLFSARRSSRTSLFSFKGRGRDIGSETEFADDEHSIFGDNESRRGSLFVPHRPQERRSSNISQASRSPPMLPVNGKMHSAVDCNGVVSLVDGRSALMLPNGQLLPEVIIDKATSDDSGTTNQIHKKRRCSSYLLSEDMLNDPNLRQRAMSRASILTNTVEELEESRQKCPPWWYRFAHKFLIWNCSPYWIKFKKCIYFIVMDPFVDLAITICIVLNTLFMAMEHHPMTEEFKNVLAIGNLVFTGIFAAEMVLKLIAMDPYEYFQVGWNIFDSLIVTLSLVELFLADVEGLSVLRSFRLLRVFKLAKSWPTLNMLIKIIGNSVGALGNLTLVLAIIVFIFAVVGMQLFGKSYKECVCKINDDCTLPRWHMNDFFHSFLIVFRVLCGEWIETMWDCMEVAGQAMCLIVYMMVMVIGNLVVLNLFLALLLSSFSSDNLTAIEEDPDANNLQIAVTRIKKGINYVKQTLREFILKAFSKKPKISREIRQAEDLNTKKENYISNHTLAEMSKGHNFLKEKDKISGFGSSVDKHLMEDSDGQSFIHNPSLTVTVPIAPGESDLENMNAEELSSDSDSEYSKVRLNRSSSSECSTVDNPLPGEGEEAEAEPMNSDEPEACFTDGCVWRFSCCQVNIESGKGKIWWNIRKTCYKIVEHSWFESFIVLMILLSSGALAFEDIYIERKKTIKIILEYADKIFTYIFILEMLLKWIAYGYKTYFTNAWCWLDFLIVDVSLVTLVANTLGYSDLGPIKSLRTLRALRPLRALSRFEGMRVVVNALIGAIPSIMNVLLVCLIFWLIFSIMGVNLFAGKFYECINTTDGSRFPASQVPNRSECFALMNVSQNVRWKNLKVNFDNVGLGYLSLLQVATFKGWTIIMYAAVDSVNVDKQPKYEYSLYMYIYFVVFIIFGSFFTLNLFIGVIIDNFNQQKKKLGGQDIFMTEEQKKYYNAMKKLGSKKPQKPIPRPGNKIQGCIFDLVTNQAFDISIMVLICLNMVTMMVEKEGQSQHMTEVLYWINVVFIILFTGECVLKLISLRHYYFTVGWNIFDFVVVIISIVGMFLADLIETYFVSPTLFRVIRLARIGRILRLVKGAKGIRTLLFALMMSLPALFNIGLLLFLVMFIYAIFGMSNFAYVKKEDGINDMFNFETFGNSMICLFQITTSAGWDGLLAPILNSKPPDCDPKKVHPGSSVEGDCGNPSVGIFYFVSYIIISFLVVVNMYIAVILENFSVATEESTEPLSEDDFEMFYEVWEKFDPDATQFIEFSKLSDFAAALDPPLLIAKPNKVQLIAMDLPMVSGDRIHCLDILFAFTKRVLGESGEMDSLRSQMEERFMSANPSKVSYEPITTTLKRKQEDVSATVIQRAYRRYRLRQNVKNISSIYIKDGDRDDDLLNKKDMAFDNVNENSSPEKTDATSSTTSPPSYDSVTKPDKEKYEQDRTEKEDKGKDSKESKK

| SMILES | IC50 [1] | IC50 |
| --- | --- | --- |
| CS(=O)(=O)C1CCN(C(=O)c2ccc3cc(Oc4ccc(C(F)(F)F)cn4)ccc3n2)C1 (stereo not drawn) [Example 287, [3-(methylsulfonyl)pyrrolidin-1-yl](6-{[5-(trifluoromethyl)pyridin-2-yl]oxy}quinolin-2-yl)methanone] | 2810 nM | – |
| O=C(c1ccc2cc(Oc3ccc(C(F)(F)F)cn3)ccc2n1)N1C[C@H]2CNC[C@H]2C1 [Example 164, (3 aR,6aS)-hexahydropyrrolo[3,4-c]pyrrol-2(1H)-yl(6-{[5-(trifluoromethyl)pyridin-2-yl]oxy}quinolin-2-yl)methanone] | 12700 nM | – |
| N#Cc1ccc(Oc2ccc3nc(C(=O)N4CCCC(C(F)(F)F)C4)ccc3c2)cc1 (stereo not drawn) [Example 110, 4-[(2-{[3-(trifluoromethyl)piperidin-1-yl]carbonyl}quinolin-6-yl)oxy]benzonitrile] | 1960 nM | – |
| O=C(N[C@@H]1CCNC[C@H]1F)c1ccc2cc(Oc3ccc(C(F)(F)F)cn3)ccc2n1 [Example 584, N-[(3R,4R)-3-fluoropiperidin-4-yl]-6-{[5-(trifluoromethyl)pyridin-2-yl]oxy}quinoline-2-carboxamide] | 304 nM | – |
| N#Cc1ccc(Oc2ccc3nc(C(=O)N[C@@H]4CCOc5ccc(F)cc54)ccc3c2)cc1 [Example 139, 6-(4-cyanophenoxy)-N-[(4R)-6-fluoro-3,4-dihydro-2H-chromen-4-yl]quinoline-2-carboxamide] | > 20000 nM | – |
| O=C(NCC(=O)N1CCC[C@@H]1CO)c1ccc2cc(Oc3ccc(C(F)(F)F)cn3)ccc2n1 [Example 570, N-{2-[(2R)-2-(hydroxymethyl)pyrrolidin-1-yl]-2-oxoethyl}-6-{[5-(trifluoromethyl)pyridin-2-yl]oxy}quinoline-2-carboxamide] | 977 nM | – |
| O=C(NC1CCC1)c1ccc2cc(Oc3ccc(C(F)(F)F)cn3)ccc2n1 [Example 596, N-cyclobutyl-6-{[5-(trifluoromethyl)pyridin-2-yl]oxy}quinoline-2-carboxamide] | 1760 nM | – |
| CC(=O)c1ccc(Oc2ccc3nc(C(=O)N4CCNCC4)ccc3c2)nc1 [Example 226, 1-(6-{[2-(piperazin-1-ylcarbonyl)quinolin-6-yl]oxy}pyridin-3-yl)ethanone] | > 20000 nM | – |
| O=C(NC1CCCS(=O)(=O)C1)c1ccc2cc(Oc3ccc(C(F)(F)F)cn3)ccc2n1 (stereo not drawn) [Example 349, N-(1,1-dioxidotetrahydro-2H-thiopyran-3-yl)-6-{[5-(trifluoromethyl)pyridin-2-yl]oxy}quinoline-2-carboxamide] | 3250 nM | – |
| COCCOCC1(F)CCN(C(=O)c2ccc3cc(Oc4ccc(C(F)(F)F)cn4)ccc3n2)C1 (stereo not drawn) [Example 493, {3-fluoro-3-[(2-methoxyethoxy)methyl]pyrrolidin-1-yl}(6-{[5-(trifluoromethyl)pyridin-2-yl]oxy}quinolin-2-yl)methanone] | 802 nM | – |
| O=C(NC1CCC(F)(F)CC1)c1ccc2cc(Oc3ccc(C(F)F)cn3)ccc2n1 [Example 437, N-(4,4-difluorocyclohexyl)-6-{[5-(difluoromethyl)pyridin-2-yl]oxy}quinoline-2-carboxamide] | 3170 nM | – |
| C[C@@H]1CN2CC(F)(F)C[C@@H]2CN1C(=O)c1ccc2cc(Oc3ccc(C(F)(F)F)cn3)ccc2n1 [Example 358, [(3R,8aR)-7,7-difluoro-3-methylhexahydropyrrolo[1,2-a]pyrazin-2(1H)-yl](6-{[5-(trifluoromethyl)pyridin-2-yl]oxy}quinolin-2-yl)methanone] | 1310 nM | – |
| O=C(c1ccc2cc(Oc3ccc(C(F)(F)F)cn3)ccc2n1)N1C[C@H](O)C[C@@H](O)C1 [Example 395, [(3R,5R)-3,5-dihydroxypiperidin-1-yl](6-{[5-(trifluoromethyl)pyridin-2-yl]oxy}quinolin-2-yl)methanone] | – | > 20000 nM |
| O=C(c1ccc2cc(Oc3ccc(C(F)(F)F)cn3)ccc2n1)N1C[C@@H](O)C[C@@H]1c1cc(F)ccc1F [Example 223, [(2R,4S)-2-(2,5-difluorophenyl)-4-hydroxypyrrolidin-1-yl](6-{[5-(trifluoromethyl)pyridin-2-yl]oxy}quinolin-2-yl)methanone] | 2790 nM | – |
| CN(C)C(=O)[C@@H]1CCCN1C(=O)c1ccc2cc(Oc3ccc(C(F)(F)F)cn3)ccc2n1 [Example 451, N,N-dimethyl-1-[(6-{[5-(trifluoromethyl)pyridin-2-yl]oxy}quinolin-2-yl)carbonyl]-L-prolinamide] | 5230 nM | – |
| CC(O)c1ccc(Oc2ccc3nc(C(=O)N4CCNCC4)ccc3c2)cc1 (stereo not drawn) [Example 275, {6-[4-(1-hydroxyethyl)phenoxy]quinolin-2-yl}(piperazin-1-yl)methanone] | 11400 nM | – |
| O=C(c1ccc2cc(Oc3ccc(C(F)(F)F)cn3)ccc2n1)N1CC(F)C1 [Example 507, (3-fluoroazetidin-1-yl)(6-{[5-(trifluoromethyl)pyridin-2-yl]oxy}quinolin-2-yl)methanone] | 2180 nM | – |

| SMILES | IC50 [1] | IC50 |
| --- | --- | --- |
| N#CCCCN1CCN(C(=O)c2ccc3cc(Oc4ccc(C(F)(F)F)cn4)ccc3n2)CC1 [Example 472, 4-{4-[(6-{[5-(trifluoromethyl)pyridin-2-yl]oxy}quinolin-2-yl)carbonyl]piperazin-1-yl}butanenitrile] | 7760 nM | – |
| O=C(NC[C@@H]1CCCO1)c1ccc2cc(Oc3ccc(C(F)(F)F)cn3)ccc2n1 [Example 394, N-[(2S)-tetrahydrofuran-2-ylmethyl]-6-{[5-(trifluoromethyl)pyridin-2-yl]oxy}quinoline-2-carboxamide] | 443 nM | – |
| N#Cc1ccc(Oc2ccc3nc(C(=O)N4CCNCC4)ccc3c2)cc1 [Example 112, 4-{[2-(piperazin-1-ylcarbonyl)quinolin-6-yl]oxy}benzonitrile] | – | 1480 nM |
| O=C(c1ccc2cc(Oc3ccc(C(F)(F)F)cn3)ccc2n1)N1CCN(S(=O)(=O)N2CCCCC2)CC1 [Example 184, [4-(piperidin-1-ylsulfonyl)piperazin-1-yl](6-{[5-(trifluoromethyl)pyridin-2-yl]oxy}quinolin-2-yl)methanone] | 923 nM | – |
| O=C(Nc1ncns1)c1ccc2cc(Oc3ccccn3)ccc2n1 [Example 80, 6-(pyridin-2-yloxy)-N-(1,2,4-thiadiazol-5-yl)quinoline-2-carboxamide] | – | > 20000 nM |
| N#Cc1ccc(Oc2ccc3nc(C(=O)N[C@H]4CCOC4=O)ccc3c2)cc1 [Example 90, 6-(4-cyanophenoxy)-N-[(3S)-2-oxotetrahydrofuran-3-yl]quinoline-2-carboxamide] | 368 nM | – |
| O=C(c1ccc2cc(Oc3ccc(C(F)(F)F)cn3)ccc2n1)N1C[C@@H]2C[C@@H](CO)[C@H]1C2 [Example 257, [(1R,4R,6R)-6-(hydroxymethyl)-2-azabicyclo[2.2.1]hept-2-yl](6-{[5-(trifluoromethyl)pyridin-2-yl]oxy}quinolin-2-yl)methanone] | 10600 nM | – |
| N#Cc1ccc(Oc2ccc3nc(C(=O)N[C@H]4CCC[C@@H]4O)ccc3c2)cc1 [Example 121, 6-(4-cyanophenoxy)-N-[(1S,2S)-2-hydroxycyclopentyl]quinoline-2-carboxamide] | – | 1660 nM |
| CN(C)C(=O)[C@@H]1CCCN1C(=O)c1ccc2cc(Oc3ccc(C(F)F)cn3)ccc2n1 [Example 465, 1-[(6-{[5-(difluoromethyl)pyridin-2-yl]oxy}quinolin-2-yl)carbonyl]-N,N-dimethyl-L-prolinamide] | > 20000 nM | – |
| O=C(c1ccc2cc(Oc3ccc(C(F)(F)F)cn3)ccc2n1)N1CC2(CCOC2)C1 [Example 532, 6-oxa-2-azaspiro[3.4]oct-2-yl(6-{[5-(trifluoromethyl)pyridin-2-yl]oxy}quinolin-2-yl)methanone] | 2770 nM | – |
| O=C(c1ccc2cc(Oc3ccc(C(F)F)cn3)ccc2n1)N1CCN2CC(F)(F)C[C@H]2C1 [Example 542, [(8aS)-7,7-difluorohexahydropyrrolo[1,2-a]pyrazin-2(1H)-yl](6-{[5-(difluoromethyl)pyridin-2-yl]oxy}quinolin-2-yl)methanone] | – | 14500 nM |
| CCN1CCN(C(=O)c2ccc3cc(Oc4ccc(C(F)(F)F)cn4)ccc3n2)CC1 [Example 294, (4-ethylpiperazin-1-yl)(6-{[5-(trifluoromethyl)pyridin-2-yl]oxy}quinolin-2-yl)methanone] | 1400 nM | – |
| O=C(NCCC(F)(F)F)c1ccc2cc(Oc3ccc(C(F)(F)F)cn3)ccc2n1 [Example 355, 6-{[5-(trifluoromethyl)pyridin-2-yl]oxy}-N-(3,3,3-trifluoropropyl)quinoline-2-carboxamide] | 1270 nM | – |
| N#Cc1ccc(Oc2ccc3nc(C(=O)NC4CCS(=O)(=O)C4)ccc3c2)cc1 (stereo not drawn) [Example 136, 6-(4-cyanophenoxy)-N-(1,1-dioxidotetrahydrothiophen-3-yl)quinoline-2-carboxamide] | – | 533 nM |
| CC(C)N1CCN(C(=O)c2ccc3cc(Oc4ccc(C(F)(F)F)cn4)ccc3n2)CC1 [Example 231, (4-isopropylpiperazin-1-yl)(6-{[5-(trifluoromethyl)pyridin-2-yl]oxy}quinolin-2-yl)methanone] | – | 783 nM |
| CC(C)(C)N1CCN(C(=O)c2ccc3cc(Oc4ccc(C(F)(F)F)cn4)ccc3n2)CC1 [Example 228, (4-tert-butylpiperazin-1-yl)(6-{[5-(trifluoromethyl)pyridin-2-yl]oxy}quinolin-2-yl)methanone] | 1150 nM | – |
